Earlier results on 1 compound are cited in US12533325B2, “Composition and method for preventing or treating opioid withdrawal symptoms” (priority 2023, dated 2026).

The subject of the series is heroin-seeking behavior.

`C=C(C)[C@@H]1CCC(C)=C[C@H]1c1c(O)cc(CCCCC)cc1O` [CBD, Cannabidiol]: where the note is “cue-induced reinstatement”, the “heroin-seeking behavior reinstated by a conditional stimulus” value is given as “attenuated heroin-seeking behavior reinstated by a conditional stimulus”. Also, where the note is “twenty-four hours and two weeks after administration”, the “persistence of effect on heroin-seeking behavior after administration” value is “protracted effect with significance after twenty-four hours and even two weeks after administration”.
